Source: patent US5792635A, “Method of inhibiting the sodium/proton exchanger NHE3 and method of inhibiting growth by administering squalamine” (priority 1995, dated 1998)
“Also recorded” adds a separate entry of the source.

Experiments:
[1] = tested on: human umbilical venous endothelial cells; assay: LPS-/TNF-α-induced neutrophil adherence; type: cell-based; conditions: 10 μg, 1.0 μg, or 0.1 μg; three different subjects
Description: Methods 109, 1988, 175-184.

[2] = tested on: chick chorioallantoic membrane; assay: Chorioallantoic membrane (CAM) model, inhibition of capillary growth; type: in vivo
Description: The growing capillaries within the chorioallantoic membrane model (CAM model) have been used as a system in which to evaluate the effect of agents on their potential to inhibit new vessel growth. Neovascularization occurs most aggressively over the first week of embryonic development. Thereafter capillary growth is characterized by principally "elongation" rather than "de novo" formation.
In the standard assay, agents are applied locally to a region of the embryo over which neovascularization will occur. Agents are assessed by their ability to inhibit this process, as evaluated by visual examination about 7 days after application. […] The assay utilized is described in detail in Auerbach et al., Pharm. Ther. 51, 1991, 1-11.

[3] = tested on: B16 melanoma; assay: Synergistic inhibition of tumor growth, B16 melanoma in mice; type: in vivo, mouse; conditions: squalamine 15 mg/kg/day; compound 1436 tolerable schedule
Description: Based on the idea that tumor growth involves both the clonal expansion of a malignant cell along with the development of a supporting vascular supply, a combination of compound 1436 with squalamine was tested to determine whether it would achieve a synergistic effect on solid tumor growth. This concept was evaluated in the B16 melanoma model.
Animals were implanted with B16 melanoma followed by treatment with compound 1436 or 1256 administered in a combined schedule or separately. […] Thus, a combination of these two compounds achieves a therapeutic benefit in tumors dependent on neovascularization that may prevent metastatic spread.

[4] = tested on: B16; assay: Cytostatic activity against B16 in culture; type: cell-based, murine; conditions: except at very high concentrations
[5] = tested on: human T-cells; assay: Inhibition of PHA-stimulated human lymphocytes; type: cell-based; conditions: 10 μg/ml
Description: Results are tabulated below.

[6] = tested on: human coronary artery smooth muscle; assay: Proliferation of human coronary artery smooth muscle in vitro; type: cell-based; conditions: FIG. 15
Description: Aminosterols of the invention may also have utility in inhibiting the growth factor mediated proliferation of smooth muscle within the artery. Following coronary angioplasty, reocclusion commonly occurs, secondary to reparative proliferation of the vascular smooth muscle within the wall of the surgically manipulated blood vessel. This process generally takes place over the course of 7-10 days. To evaluate whether an agent could prevent the growth factor mediated proliferation of smooth muscle within the artery, compound 1436 was evaluated in vitro for its effect on the proliferation of human coronary artery smooth muscle. Results for compound 1436 are shown in FIG. 13, and those for squalamine are shown in FIG. 14, with FIG. 15 being a composite logarithmic plot.

[7] = tested on: bacteria, fungi and protozoa; conditions: in words; cited from earlier work
[8] = tested on: rabbit NHE1; assay: Inhibition of NHE1 in PS120 fibroblasts transfected with rabbit NHE1, internal pH by BCECF-AM; type: cell-based; conditions: 5 μg/ml; acid-preloaded; FIG. 2A
Description: (§1) PS120 fibroblasts transfected with rabbit or human NHE1 were grown as described above.

[9] = tested on: vitelline capillaries of 3- to 5-day chick embryo; assay: Chick embryo vitelline capillary regression assay; type: in vivo
Description: Using the chick embryo vitelline capillaries assay, compounds were tested for their ability to induce capillary regression. Each compound was applied in 0.1 ml of 15% Ficol 400 and PBS onto the embryo, and vascular regression was assessed after 60 minutes.
The 3-day chick embryo consists of an embryonic disc from which numerous vessels emerge and return, forming a "figure 8"-shaped structure--the embryo in the center with vascular loops extending outward over both poles. […] Following a lag period of around 15 minutes, the constriction of continuity between capillary and secondary vessels, generally on the "venous" side, was observed. Continued pulsatile blood flow progressed, resulting in a "swelling" of the blind tube, followed by a pinching off of the remaining connection and formation of an enclosed vascular sac resembling a "blood island." This process progressed until only the largest vessels remained intact.

[10] = tested on: human NHE1; assay: Inhibition of NHE1 in PS120 fibroblasts transfected with human NHE1, internal pH by BCECF-AM; type: cell-based; conditions: 5 μg/ml; acid-preloaded; FIG. 2B
Description: as §1

[11] = target: rabbit NHE3 (Oryctolagus cuniculus, UniProt P26432); conditions: 5 μg/ml
Description: Internal pH was measured either following acid loading or in the absence of an acid-loading challenge, with the results shown in FIGS. 1A and 1B.
Specifically, PS120 fibroblasts transfected with rabbit NHE3 were grown in supplemented Dulbecco's-modified Eagle's medium as described by Levine et al., J. Biol. Chem. 268, 1993, 25527-25535. […] For cells not acid-preloaded, the actual internal pH value was monitored as a function of time following addition of squalamine, with the results depicted in FIG. 1B.
PS120 fibroblasts transfected with rabbit NHE3 were grown and acid preloaded by exposure to 40 mM NH4 Cl as described above in conjunction with FIGS. 1A and 1B. Internal cellular pH changes expressed as the rate of pH recovery as a function of restored extracellular sodium ion concentration following exposure to 10 μg/ml of the compound were assayed with the fluorescent dye BCECF-AM as described above.

[12] = tested on: Xenopus tadpoles; assay: Tadpole assay; conditions: 10 μg/ml
[13] = tested on: melanoma 1205Lu; assay: Suppression of growth of human melanoma 1205Lu in RAG-1 mice; type: in vivo, mouse (human tumor)
Description: As apparent from FIG. 5, melanoma 1205Lu develops aggressively in RAG-1 mice after implantation.

[14] = tested on: B16 melanoma; assay: Suppression of growth of B16 melanoma in C57B mice; type: in vivo, mouse
Description: The growth of B16 melanoma in C57B mice is dependent upon neovascularization.
Using the growth of B16 melanoma cells in C57B mice, a recognized model for the evaluation of inhibitors of angiogenesis on the growth of cancers, the effects of subcutaneous, intraperitoneal and oral administration of squalamine were evaluated.

Sequence of rabbit NHE3 (P26432 30-832): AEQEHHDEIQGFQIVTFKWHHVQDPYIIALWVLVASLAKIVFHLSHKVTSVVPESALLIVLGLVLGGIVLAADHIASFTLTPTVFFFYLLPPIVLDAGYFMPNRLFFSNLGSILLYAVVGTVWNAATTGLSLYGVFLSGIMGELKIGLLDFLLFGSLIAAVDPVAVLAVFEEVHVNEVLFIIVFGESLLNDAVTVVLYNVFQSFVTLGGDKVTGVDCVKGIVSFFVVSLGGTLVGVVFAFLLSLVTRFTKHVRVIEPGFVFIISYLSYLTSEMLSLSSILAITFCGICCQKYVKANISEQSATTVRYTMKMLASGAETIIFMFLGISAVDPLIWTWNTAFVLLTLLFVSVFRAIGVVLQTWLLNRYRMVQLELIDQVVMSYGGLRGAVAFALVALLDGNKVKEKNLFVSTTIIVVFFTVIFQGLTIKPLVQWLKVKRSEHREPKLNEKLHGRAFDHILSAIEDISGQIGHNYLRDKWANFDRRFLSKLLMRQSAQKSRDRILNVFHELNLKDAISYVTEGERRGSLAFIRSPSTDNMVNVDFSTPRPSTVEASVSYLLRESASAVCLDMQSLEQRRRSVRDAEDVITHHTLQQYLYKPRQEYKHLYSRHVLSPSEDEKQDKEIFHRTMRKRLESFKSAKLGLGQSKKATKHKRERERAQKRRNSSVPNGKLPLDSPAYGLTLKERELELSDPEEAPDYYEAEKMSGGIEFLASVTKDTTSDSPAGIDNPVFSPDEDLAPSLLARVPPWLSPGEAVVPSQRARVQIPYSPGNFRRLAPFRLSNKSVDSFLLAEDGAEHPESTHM

With CC(C)[C@@H](CC[C@@H](C)[C@H]1CC[C@H]2[C@@H]3[C@H](O)C[C@H]4C[C@@H](NCCCNCCCCN)CC[C@]4(C)[C@H]3CC[C@]12C)OS(=O)(=O)O [Squalamine] the “inhibition of neutrophil adherence” value [1] was “no inhibition”, the “positive (fraction printed under Percentage positive)” value ([2]; 13-day embryo, 5.0 μg applied) was 0/26 and the “anti-angiogenic activity in CAM” value ([2]; in words) was “potent but specific inhibitory activity, equal in potency to the most active compounds described to date in the literature”. For the same compound, the “inhibitory effect on 13-day chick” value ([2]; ten times 0.65 μg, 13-day old chick) was “no inhibitory effect”, the “effect of single agent versus combination” value [3] was “Neither administration of squalamine at 15 mg/kg/day nor compound 1436 alone in a tolerable schedule could achieve this effect” and the “cytostatic activity against B16 in culture” value [4] was “minimal cytostatic activity”. For the same compound, the “inhibition of blast transformation, in words” value [5] was “Some effect”, the “suppression of growth of human coronary artery smooth muscle” value [6] was “suppress in vitro the growth of human coronary artery smooth muscle” and the antibiotic activity [7] was “broad-spectrum antibiotic, killing bacteria, fungi and protozoa”. The “inhibitory activity against rabbit NHE1” value [8] was “no inhibitory activity”, the “effect on vitelline capillaries” value ([9]; 3- to 5-day chick embryos) was “disrupt vitelline capillaries” and the “lag period before constriction between capillary and secondary vessels” value ([9]; 3-day chick embryo) was “around 15 minutes”. For the same compound, the “activity in vitelline capillary regression assay” value ([9]; Table 5) was “especially active”, the embryonic heart beat ([9]; chick embryo) was “continued to beat vigorously” and the hemorrhage ([9]; chick embryo) was “No hemorrhage was seen”. The hemolysis ([9]; chick embryo, microscopic) was “absence of hemolysis”, the “inhibitory activity against human NHE1” value [10] was “no inhibitory activity” and the “inhibition of NHE3 (Km and Vmax)” value ([11]; FIG. 1A, 1B) was “inhibited NHE3 with respect to proton concentration at both Km and Vmax levels”. The “resting internal pH” value ([11]; not acid-preloaded, FIG. 1B) was “the resting pH of these cells was also inhibited”, the “death / lethality time” value [12] was at most 2 h and the “observed response in tadpole” value ([12]; stage 59-60 Xenopus) was “blood flow through the capillaries of the tail shut down; also recorded: unaltered blood flow through the fine capillaries of the hands and feet; also recorded: common vascular occlusive effect; also recorded: Vascular occlusion in fine capillaries of tail. No effect on vascular flow through hands or feet”. For the same compound, the “suppression of melanoma 1205Lu growth” value ([13]; 10, 20, 40 mg/kg/d, FIG. 5) was “suppress the growth of melanoma 1205Lu in RAG-1 mice in a dose-dependent fashion”, the “reversibility after cessation of treatment” value ([13]; RAG-1 mice) was “reversible” and the “body weight and hematologic parameters” value ([14]; B16-bearing C57B mice) was “no significant depression”. For the same compound, the “suppression of B16 tumor volume” value ([14]; intraperitoneal, FIG. 4B) was “dose-dependent suppression of tumor volume”, the “suppression of B16 tumor volume” value ([14]; oral, FIG. 4C) was “dose-dependent suppression of tumor volume” and the “suppression of B16 tumor volume” value ([14]; subcutaneous, FIG. 4A) was “dose-dependent suppression of tumor volume”.
